Experimental data reported in patent publication US8318664B2, “Unacylated ghrelin fragments as therapeutic agent in the treatment of obesity” (Alize Pharma SAS, priority 2007, dated 2012).
Entries after “also recorded” stand apart in the source; their conditions may differ. Non-standard residues stand in square brackets, D forms with d. No end group written: not given here.

Key:
hamster HIT-T15 β-cells = test: MTT cell survival assay in HIT-T15 β-cells; format: cell-based
Protocol: MTT experiments were also performed in hamster HIT-T15 β-cells, to test the survival effect of UAG (1-28) or its fragments UAG (1-14), UAG (1-18), UAG (1-5) and UAG (17-28) in serum deprived medium, either alone or with IFN-γ/TNF-α/IL-1β. As for the experiments performed on INS-1E β-cells, the peptides were tested at increasing concentrations, ranging from 0.1 nM to 100 nM.
The survival effect of UAG (6-13), UAG (8-13), UAG (8-12), UAG (8-11), UAG (9-12) and UAG (9-11) was assessed in cytokine-treated HIT-T15 β-cells.
The protective effects of peptides UAG (8-13) and UAG (8-12) were found similar to those of UAG (1-14) and UAG (1-18). A peptide made of the inverse sequence of UAG (1-14) and named UAG (14-1), was used as negative control for these experiments (FIG. 5A). […] These effects were however lower than those of UAG (6-13) (FIG. 5B).
UAG fragments with alanine (Ala) substitutions at different amino acid positions (6 to 13) were tested with regards to their survival effects in HIT-T15 hamster β-cells. The cells were cultured in serum deprived medium, either alone or with IFN-γ/TNF-α/IL-1β. The peptides were tested at the concentrations of 1 nM to 100 nM. […] Under treatment with cytokines, where cell survival was reduced by ≈18% with respect to serum starved conditions, all Ala substitutions, except those at positions 10 and 11, completely reversed cell death and brought the survival rate to levels that were even higher than those under serum-free conditions, at both 1 nM and 100 nM concentrations. These effects were similar to those elicited by the original peptide UAG (6-13) (FIG. 11B).
Particularly, the best effect was exerted by Gly 6-UAG (6-13), whereas the lowest was seen using AcSer 6-UAG (6-13), AcSer 6-(D)Pro 7-UAG (6-13) (FIG. 12B).
(§1) Hamster HIT-T15 insulin-secreting β-cells were obtained and cultured as described (Refs. 14, 4). INS-1E rat β-cells were kindly provided by Prof. Claes B. Wollheim (University Medical Center, Geneva, Switzerland) and cultured as described (Refs. 14, 4). Cell culture reagents were from Invitrogen (Milano, Italy). Cytokines were from Biosource (Invitrogen, Italy).
(§2) Cell survival was assessed by 3-[4,5-dimethylthiazol-2-yl]-2,5diphenyltetrazolium bromide (MTT) as described previously (Ref. 4). Cells were seeded on 96-well plates at a density of 5×10^3 cells/well. After treatments, cells were incubated with 1 mg/ml MTT for ≈1 h. The medium was aspirated, and the formazan product solubilized with 100 μl DMSO. Viability was assessed by spectrophotometry at 570 nm absorbance using a 96-well plate reader.

HIT-T15 β-cells = test: Cytokine-induced apoptosis in HIT-T15 β-cells; format: cell-based, hamster; conditions: 24 h serum-free medium with IFN-γ/TNF-α/IL-1β, 1, 10, 100 nM
Protocol: HIT-T15 β-cells were cultured for 24 h in serum-free medium, either alone or with IFN-γ/TNF-α/IL-1β. In both cell lines, apoptosis increased under cytokine treatment, with respect to serum starvation alone. […] UAG (14-1), the inverse sequence of UAG (1-14), was used as negative control, whereas UAG (1-28), was used as positive control in each experiment.

INS-1E rat β-cells = test: MTT cell survival assay in INS-1E β-cells; format: cell-based; conditions: 0.1 nM to 100 nM
Protocol: The peptides were tested at increasing concentrations, ranging from 0.1 nM to 100 nM.
as §1, §2

human pancreatic islets = test: MTT cell survival assay in human pancreatic islets; format: cell-based; conditions: human islet cells, 1 nM to 100 nM
Protocol: The survival effect of UAG (1-14), UAG (1-18), UAG (1-5) and UAG (17-28), with respect to that of full length UAG (1-28), was assessed in human pancreatic islets by MTT. The peptides were tested in islet cells cultured in serum deprived medium, either alone or with IFN-γ/TNF-α/IL-1β (5 ng/ml each).
Human islets were obtained from pancreases of multiorgan donors as described (Ref. 4). Islet preparations with purity >70%, not suitable for transplantation, were provided by European Consortium for Islet Transplantation (ECIT) “Islets for Research Distribution Program,” Transplant Unit, Scientific Institute San Raffaele, Vita-Salute University, Milan. Islets (10,000) were cultured in CMRL (Invitrogen) with 10% FBS.
as §2

[1] = system: C57BL/6J male mice on high fat diet; test: High fat diet (HFD) pre-diabetic/onset obesity model in C57BL/6J mice; format: in vivo, mouse
Protocol: In order to assess the effects of UAG and cyclic UAG (6-13) on the metabolic responses to a high fat diet, ten (10) week old C57BL/6J male mice were allowed to acclimatize in the animal facility for 1 week. The mice were fed a standard chow (also referred herein as “normal diet” or “ND”, 9% kcal fat) and were maintained in 12 hour:12 hour light:dark conditions at 21° C. (FIG. 17).
At 11 weeks, the mice were separated into 2 different streams (n=10): the first stream consisted in 4 weeks of normal diet and the second stream consisted in 2 weeks of normal diet followed by 2 weeks of high fat diet (also referred herein as “HFD”, 41% kcal fat) with Intraperitoneal Glucose Tolerance Testing (IPGTT) (also referred herein as “IPGTT”) and Intraperitoneal Insuline Tolerance Testing (also referred herein as “IPITT”). Baseline 24 h food intake and IPGTTs were run before pump implantation (FIG. 17).
Alzet 1004 micro-osmotic pumps containing saline, UAG or cyclic UAG (6-13) were implanted at week 0 of the procedure depicted in FIG. 17 in the mice of the two streams (sc., interscapular) under isoflurane anesthesia and peri-operative carprofen analgesia (5 mg/kg sc.). UAG or cyclic UAG (6-13) peptides were infused at 4 nmol/kg/hr.
Body weight and 24 h food intake were measured weekly for 4 weeks and IPGTTs were performed bi-weekly for 4 weeks. […] The suppression in body weight gain observed in peptide-treated mice can therefore not be explained by a reduced food intake.
GTTs were performed following a 6 h fast starting at 8 am, then ˜100 μl of blood was collected from the tail vein (t=0) for measurement of insulin under fasting conditions (no anesthesia). Mice were injected ip. with 2 g/kg glucose in saline solution. Glucose was then measured using a glucometer using ˜0.5 μl of tail vein blood at t=0, 15, 30, 45, 60 and 120 minutes. During the GTT at wk 4 samples of ˜25 μl of tail vein blood were also collected at 15, 30 and 120 minutes for insulin determination.
The day after the final IPGTT, mice were fasted for 4 h starting at 8 am, then injected with human insulin (Actrapid, Novo Nordisk) at 0.5 IU/kg. Glucose in tail vein blood (˜0.5 μl) was measured with a glucometer at t=0, 15, 30, 45, 60 and 120 minutes (no anesthesia).
Tail vein blood glucose was measured by glucometer biweekly from free-fed mice in the non-IPGTT experimental streams (no anesthesia).

[2] = system: UAG receptor on HIT-T15 pancreatic β-cells; test: Competition with [125I-Tyr4]-UAG for binding sites on HIT-T15 membranes; parameters: species or system hamster
Protocol: (§3) The ability of the fragment UAG (6-13) to compete in a concentration-dependent manner with [^125I-Tyr^4]-UAG for HIT-T15 (FIG. 10A) and INS-1E (FIG. 10B) binding sites was assayed. As shown in FIGS. 10A and 10B, unlabelled UAG (1-28) and UAG (6-13) competed with a similar efficacy and in a concentration-dependent fashion with [^125I-Tyr^4]-UAG for such binding sites in both cell lines.
(§4) Membranes from hamster HIT-T15 and rat INS-1E pancreatic β-cells were prepared and assayed for the presence of [^125I-Tyr^4]-UAG binding. The ability of UAG fragments to compete with the radioligand for such binding sites has been evaluated as previously described (Ref. 4). Data are presented as mean±S.E.M. of three independent experiments.

[3] = system: UAG receptor on INS-1E pancreatic β-cells; test: Competition with [125I-Tyr4]-UAG for binding sites on INS-1E membranes; parameters: species or system rat
Protocol: as §3, §4

[4] = serum deprived medium with IFN-γ/TNF-α/IL-1β
[5] = serum deprived medium with IFN-γ/TNF-α/IL-1β (5 ng/ml each)

With “Ac-Ser-Pro-Glu-His-Gln-Arg-Val-Gln-NH2 (Ac-SPEHQRVQ-NH2; listed as Homo sapiens) [AcSer 6-UAG (6-13)]” as the substance, how does the “cell survival (MTT)” value (hamster HIT-T15 β-cells; [4]) read?
Its value is “lowest”.

For “Ac-Ser-pro-Glu-His-Gln-Arg-Val-Gln-NH2 (Ac-S[dP]EHQRVQ-NH2; listed as Homo sapiens) [AcSer 6-(D)Pro 7-UAG (6-13)]”, which “cell survival (MTT)” value (hamster HIT-T15 β-cells; [4]) is on record?
Its value is “lowest”.

Which “cell survival (MTT)” value (hamster HIT-T15 β-cells; [4]) does the source give for EHQRVQ [UAG (8-13)] here?
The value was “significant protective effect at all the concentrations examined; also recorded: strongly effective in increasing survival”.

What about the “antiapoptotic effect (cytokine-induced apoptosis)” value (HIT-T15 β-cells) of the same substance?
Its value is “significantly inhibited apoptosis at 10 and 100 nM; also recorded: strongest antiapoptotic effect”.

With ESKKPPAKLQPR [UAG (17-28)] as the substance, how does the “cell survival (MTT)” value (INS-1E rat β-cells; serum deprived medium alone) read?
The value was “reduced, although significant, survival action; also recorded: only a trivial effect”.

What about the “cell survival (MTT)” value (INS-1E rat β-cells; [4]) of the same substance?
The value was “reduced effect; also recorded: only a trivial effect”.

What about the “cell survival (MTT)” value (hamster HIT-T15 β-cells; serum deprived medium alone) of the same substance?
Its value is “no significant effect; also recorded: very little effect”.

And the “cell survival (MTT)” value (hamster HIT-T15 β-cells; [4])?
The value was “no significant effect; also recorded: very little effect”.

And the “cell survival (MTT)” value (human pancreatic islets; serum deprived medium alone)?
Its value is “significantly increased survival of islet cells”.

And the “cell survival (MTT)” value (human pancreatic islets; [5])?
The value was “had no effect”.

For “Glu-His-Gln-Arg (EHQR; listed as Homo sapiens) [UAG (8-11)]”, which “cell survival (MTT)” value (hamster HIT-T15 β-cells; [4]) is on record?
The value was “significant survival effect only at 100 nM”.

How did the “cell survival (MTT)” value (hamster HIT-T15 β-cells; [4]) turn out when “Glu-His-Gln-Arg-Val (EHQRV; listed as Homo Sapiens) [UAG (8-12)]” was run?
The value was “strongly effective in increasing survival”.

What about the “antiapoptotic effect (cytokine-induced apoptosis)” value (HIT-T15 β-cells) of the same substance?
Its value is “some protective effect only at 100 nM; also recorded: strongest antiapoptotic effect”.

With “Gly-Pro-Glu-His-Gln-Arg-Val-Gln-NH2 (GPEHQRVQ-NH2; listed as Homo sapiens) [Gly 6-UAG (6-13)]” as the substance, how does the “cell survival (MTT)” value (hamster HIT-T15 β-cells; [4]) read?
The value was “best effect”.

For “Gly-Ser-Ser-Phe-Leu (GSSFL; listed as Homo sapiens) [UAG (1-5)]”, which “cell survival (MTT)” value (INS-1E rat β-cells; serum deprived medium alone) is on record?
The value was “reduced, although significant, survival action; also recorded: only a trivial effect”.

And the “cell survival (MTT)” value (INS-1E rat β-cells; [4])?
The value was “reduced effect; also recorded: only a trivial effect”.

What about the “cell survival (MTT)” value (hamster HIT-T15 β-cells; serum deprived medium alone) of the same substance?
The value was “very little effect”.

What about the “cell survival (MTT)” value (hamster HIT-T15 β-cells; [4]) of the same substance?
The value was “slightly increased cell survival; also recorded: very little effect”.

And the “cell survival (MTT)” value (human pancreatic islets; serum deprived medium alone)?
The value was “little, although significant survival action at 10 nM”.

And the “cell survival (MTT)” value (human pancreatic islets; [5])?
Its value is “no cell protection”.

For His-Gln-Arg [UAG (9-11)], which “cell survival (MTT)” value (hamster HIT-T15 β-cells; [4]) is on record?
Its value is “no significant effect at both concentrations tested”.

How did the “cell survival (MTT)” value (hamster HIT-T15 β-cells; [4]) turn out when “His-Gln-Arg-Val (HQRV; listed as Homo sapiens) [UAG (9-12)]” was run?
The value was “significantly increased cell survival at both the concentrations tested”.

For “Ser-Pro-Glu-His-Gln-Arg-Val-Gln (cyclic) (SPEHQRVQ; cyclic; (1)..(8) Cyclic; listed as Homo sapiens) [cyclic UAG (6-13)]”, which body weight gain ([1]; HFD, 4 nmol/kg/hr sc. infusion, compared to saline-HFD) is on record?
The body weight gain was “suppressed body weight gain”.

What about the “glucose levels in fasting or fed state” value ([1]; HFD, pre-diabetic, normoglycemic conditions) of the same substance?
The value was “does not significantly affect glucose levels”.

What about the “HFD-induced insulin resistance (insulin tolerance test, area above the glucose curve)” value ([1]; IPITT, HFD) of the same substance?
Its value is “restores insulin resistance to a level that is comparable to ND control”.

What about the “HFD-induced glucose intolerance (IPGTT)” value ([1]; after 2 weeks on the HFD) of the same substance?
Its value is “prevents glucose intolerance”.

And the “reduction of eWAT normalized for body weight” value ([1]; at 4 weeks, HFD)?
The value was “about 28%”.

What about the “weight of epididymal white adipose tissue (eWAT)” value ([1]; at 4 weeks, HFD) of the same substance?
The value was “lower than that of the control mice fed on the HFD”.

How did the “binding to the UAG receptor” value [2] turn out when “UAG (1-13): fragment named only in b101 as binding to the UAG receptor; possibly a misprint (GSSFLSPEHQRVQ)” was run?
The value was “recognized and bound”.

And the “binding to the UAG receptor” value [3]?
Its value is “recognized and bound”.
